{
  "source": "paper PMC3692431",
  "about": "“Anticonvulsant Activity of B2, an Adenosine Analog, on Chemical Convulsant-Induced Seizures” (PLoS ONE, 2013)",
  "key": {"[1]": {"tested_on": "PTZ-induced seizures", "test": "PTZ-induced seizures in mice", "type": "in vivo", "conditions": "PTZ 85 mg/kg s.c.; for seizure occurrence: all control mice seized; for latency to seizure onset prolonged by / number of seizures reduced by: vs control", "description": "The latency of seizure onset, number of seizures, and mortality rate was recorded for the picrotoxin-injected mice. For the PTZ-injected mice, we recorded the latency of seizure onset, number of seizures, and presence of clonic seizures."}, "[2]": {"target": "T1, recombinant human adenosine A1 receptor (Homo sapiens, UniProt P30542)", "T1 construct": "expressed in transfected cells; host or cells: CHO cells (provided by Professor R. B. Su)", "T1 sequence (P30542 1-326)": "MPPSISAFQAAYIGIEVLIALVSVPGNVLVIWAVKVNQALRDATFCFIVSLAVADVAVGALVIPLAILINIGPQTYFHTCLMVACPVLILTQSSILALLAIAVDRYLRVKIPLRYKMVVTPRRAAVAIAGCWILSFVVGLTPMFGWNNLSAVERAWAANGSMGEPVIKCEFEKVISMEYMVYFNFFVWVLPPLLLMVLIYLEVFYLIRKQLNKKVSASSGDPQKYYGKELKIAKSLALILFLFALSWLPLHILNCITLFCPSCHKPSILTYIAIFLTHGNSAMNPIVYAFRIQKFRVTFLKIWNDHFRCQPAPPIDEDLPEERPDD", "test": "cAMP accumulation assay in CHO cells expressing A1 receptor", "type": "cell-based", "conditions": "CHO cells stably expressing human A1 receptor; forskolin-stimulated cAMP; read-out: EC50, decrease of cellular cAMP level", "description": "Chinese hamster ovary (CHO) cells expressing recombinant human A1/A2A receptors (provided by Professor R. B. Su of the Institute of Pharmacology and Toxicology, Academy of Military Medical Sciences, Beijing, China) were cultured in Dulbecco’s Modified Eagles Medium with the F12 nutrient mixture (DMEM/F12) containing no nucleosides, and with 10% fetal calf serum, penicillin (100 U/ml), streptomycin (100 µg/ml), L-glutamine (2 mM), and Geneticin at 37°C in a 5% CO2/95% atmosphere. The cells used to determine cAMP levels had viability >95%, as assessed by trypan blue exclusion.\nIntracellular cyclic adenosine monophosphate (cAMP) levels were measured using a competitive protein binding method. To measure A1/A2A receptor-mediated accumulation of cAMP, cells were grown as confluent monolayers in 24-well cluster dishes. The cells were washed twice with 2 mL of medium containing 20 mM HEPES that had been prewarmed to 37°C, pH 7.4. The cells were then preincubated for 15 min in 0.4 mL fresh medium containing 30 µM of the cAMP phosphodiesterase inhibitor rolipram. B2 was added in 0.1 mL of medium and incubations continued for 15 min. The reaction was then terminated by removing the supernatant, and cells were lysed with the addition of 500 µl of 0.1 M ice-cold HCl. The cell lysate was centrifuged (4,000×g) at 4°C for 10 min. […] Bound radioactivity was measured by liquid scintillation spectrometry."}, "[3]": {"tested_on": "c-Fos expression in the hippocampus", "test": "PTZ-induced c-Fos expression, immunohistochemistry", "type": "in vivo, mice", "conditions": "B2 5 mg/kg, PTZ 85 mg/kg, 2 h", "description": "(§1) Mice were injected with either B2 (5 mg/kg) or vehicle 20 min before administration of PTZ (85 mg/kg). Two hours later, mice were either anesthetized for c-Fos analysis using immunohistochemistry or decapitated or western blotting.\nMice were anesthetized with chloral hydrate (400 mg/kg, i.p.) and perfused through the heart with saline solution followed by ice-cold 4% paraformaldehyde (PFA) in 0.1 M phosphate buffer (pH 7.4). Their brains were then removed, post-fixed in 4% PFA for 24 h at 4°C, and immersed in 30% sucrose at 4°C until they sank. Thereafter, coronal sections (30 µm) were cut using a freezing microtome (Leica RM2125).\nSections were immunostained using previously described methods. Sections were first immersed in 0.3% Triton X-100 for 10 min at room temperature, and then in 3% hydrogen peroxide for 10 min to quench endogenous peroxidase activity. Sections were then rinsed twice in 10 mM phosphate-buffered saline (pH 7.2) containing 0.3% Triton X-100. This was followed by incubation with diluted normal blocking serum (Vector Elite ABC kit) for 30 min and then 1∶800 rabbit polyclonal anti-c-Fos (primary) antibodies overnight at 4°C. Biotinylated secondary antibody solutions and VectaStain® Elite ABC reagents were applied. The peroxidase reaction was visualized using DAB with nickel ammonium sulfate for black staining. Sections were mounted, dehydrated and cover slipped. […]"}, "[4]": {"tested_on": "c-Fos expression in the hippocampus", "test": "PTZ-induced c-Fos expression, western blot", "type": "in vivo, mice", "conditions": "B2 5 mg/kg + PTZ 85 mg/kg, 2 h, PTZ alone 8 times", "description": "as §1\nMice were decapitated and the hippocampus was quickly dissected on ice. The hippocampus was then homogenized in 20 volumes of cell lysis buffer. The homogenates were incubated on ice for 15 min and centrifuged at 12000×g for 5 min at 4°C. The supernatant containing the crude nuclear extract was collected and the protein content estimated using a Bradford assay. Protein samples […] were electrophoresed in 10% SDS-PAGE at 150 V for 3 h. The samples were then electroblotted onto nitrocellulose membranes at 20 V. The membranes were blocked using 5% dry non-fat milk in 0.1% TBST solution, and incubated overnight on a shaker with anti-c-Fos rabbit antibody (SC-52g) diluted 1∶800 (Santa Cruz Biotechnology). On the following day, the blots were washed using 0.1% TBST solution and incubated for 2 h with anti-rabbit peroxidase-conjugated secondary antibody. The blots were then washed using 0.1% TBST solution. After adding super ECL plus solution, the protein bands were detected using ECL (Fuji Digital Science), as described by the manufacturer. The optical density of the intensity of the bands was measured using Gel Pro Analyzer (version 4.0)."}, "[5]": {"tested_on": "PC12 cell", "parameters": "method as in PMID 22242450", "conditions": "cited from earlier work"}},
  "data": [
    {"smiles": "COc1cc(CNc2ncnc3c2ncn3[C@@H]2O[C@H](CO)[C@@H](O)[C@H]2O)ccc1O", "note": "[B2, N^6-(3-methoxyl-4-hydroxybenzyl) adenine riboside]", "values": [
      {"measurement": "seizure occurrence", "setting": "[1]; B2 1.25 mg/kg i.p.", "result": 70, "unit": "%"},
      {"measurement": "latency to seizure onset prolonged by", "setting": "[1]; B2 1.25 mg/kg i.p.", "result": 43, "unit": "%"},
      {"measurement": "number of seizures reduced by", "setting": "[1]; B2 1.25 mg/kg i.p.", "result": 39, "unit": "%"},
      {"measurement": "seizure occurrence", "setting": "[1]; B2 5 mg/kg i.p.", "result": 30, "unit": "%"},
      {"measurement": "latency to seizure onset prolonged by", "setting": "[1]; B2 5 mg/kg i.p.", "result": 89, "unit": "%"},
      {"measurement": "number of seizures reduced by", "setting": "[1]; B2 5 mg/kg i.p.", "result": 70, "unit": "%"},
      {"measurement": "seizure occurrence", "setting": "[1]; B2 20 mg/kg i.p.", "result": 50, "unit": "%"},
      {"measurement": "latency to seizure onset prolonged by", "setting": "[1]; B2 20 mg/kg i.p.", "result": 93, "unit": "%"},
      {"measurement": "number of seizures reduced by", "setting": "[1]; B2 20 mg/kg i.p.", "result": 62, "unit": "%"},
      {"measurement": "EC50", "setting": "[2]", "result": 0.18, "unit": "µM"},
      {"measurement": "effect on PTZ-induced increase of c-Fos expression in the CA2/3 region", "setting": "[3]", "result": "minor effect"},
      {"measurement": "effect on PTZ-induced increase of c-Fos expression in the dentate gyrus and CA1", "setting": "[3]", "result": "significantly reversed"},
      {"measurement": "c-Fos expression in the hippocampus, times larger than vehicle control group", "setting": "[4]", "result": 1.5, "unit": "times"},
      {"measurement": "PC12 cell survival in serum deprivation-induced apoptosis", "setting": "[5]", "result": "remarkably increased"}
    ]}
  ]
}
